Results from PubChem BioAssay (NCI).
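Five concentrations, 48 hours, 96-well plates. GI50 = concentration required for 50% inhibition of growth. Definition used: TGI = concentration required for complete inhibition of growth.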 *1 amine or outer side, *2 acyl side, *3 side chain or, on linkers, in order; H or OH if unused. Where a SMILES comes first, the peptide text is derived from it. Bridges are numbered along the chain shown (N, C = ends). [ ]: non-standard residue; d: D form. The star is where a group is joined. ξ: configuration not given here. ξOrn(4,5-diOH) = O=C(C(CC(O)C(O)N[*:3])N[*:1])[*:2]; ξhTyr(βξ-OH,γξ-OH) = NC(C(=O)O)C(O)C(O)c1ccc(O)cc1; ξPro(3ξ-OH,4ξ-Me) = CC1CNC(C(=O)O)C1O; X22 = CCCCC/C=C/C/C=C\CCCCCCCC(=O)*; Hyp = O=C(O)[CH]1C[CH](O)CN1

Tests used:
Test in all cases: inhibition of tumour cell growth, NCI panel, 48 h
[1] = system: MDA-MB-435
[2] = system: SNB-19 CNS
[3] = system: HCT-15 colon
[4] = system: HCT-116 colon
[5] = system: NCI-H460 lung
[6] = system: SF-295 CNS
[7] = system: UACC-62 melanoma
[8] = system: HOP-62 NSCLC
[9] = system: LOX IMVI melanoma
[10] = system: A498 renal
[11] = system: OVCAR-5 ovarian
[12] = system: CAKI-1 renal
[13] = system: SW-620 colon
[14] = system: SK-MEL-5 melanoma
[15] = system: COLO 205 colon
[16] = system: M14 melanoma
[17] = system: MOLT-4 leukemia
[18] = system: HT29 colon
[19] = system: SR leukemia
[20] = system: IGROV1 ovarian
[21] = system: MALME-3M melanoma
[22] = system: KM12 colon
[23] = system: NCI-H226 lung
[24] = system: K-562 leukemia
[25] = system: SK-OV-3 ovarian
[26] = system: SF-268 CNS
[27] = system: T-47D breast
[28] = system: RPMI-8226 leukemia
[29] = system: HL-60(TB) leukemia
[30] = system: NCI/ADR-RES ovarian
[31] = system: TK-10 renal
[32] = system: MDA-MB-231 breast
[33] = system: MCF7 breast
[34] = system: CCRF-CEM leukemia
[35] = system: ACHN renal
[36] = system: PC-3 prostate
[37] = system: DU-145 prostate
[38] = system: 786-0 renal
[39] = system: SNB-75 CNS
[40] = system: SK-MEL-28 melanoma
[41] = system: NCI-H23 lung
[42] = system: OVCAR-4 ovarian
[43] = system: SN12C renal
[44] = system: HOP-92 NSCLC
[45] = system: OVCAR-3 ovarian
[46] = system: OVCAR-8 ovarian
[47] = system: SF-539 CNS
[48] = system: HCC-2998 colon
[49] = system: RXF 393 renal
[50] = system: UO-31 renal
[51] = system: HS 578T breast
[52] = system: UACC-257 melanoma
[53] = system: A549 NSCLC
[54] = system: EKVX NSCLC
[55] = system: U251 CNS
[56] = system: NCI-H522 lung
[57] = system: BT-549 breast

CCOC(=O)c1c(Cl)c2c(n1Cc1ccccc1)-c1oncc1CCC2
GI50 [1]: 1.4 µM | TGI [1]: 4.92 µM | GI50 [2]: > 100 µM | TGI [2]: > 100 µM | GI50 [3]: 3.39 µM | TGI [3]: > 100 µM | GI50 [4]: 4.02 µM | TGI [4]: > 100 µM | GI50 [5]: 3.62 µM | TGI [5]: > 100 µM | GI50 [6]: > 100 µM | TGI [6]: > 100 µM | GI50 [7]: 4.01 µM | TGI [7]: > 100 µM | GI50 [8]: 4.35 µM | TGI [8]: > 100 µM | GI50 [9]: 5.26 µM | TGI [9]: > 100 µM | GI50 [10]: 4.38 µM | TGI [10]: > 100 µM | GI50 [11]: > 100 µM | TGI [11]: > 100 µM | GI50 [12]: 3.51 µM | TGI [12]: > 100 µM | GI50 [13]: 3.81 µM | TGI [13]: > 100 µM | GI50 [14]: 3.53 µM | TGI [14]: > 100 µM | GI50 [15]: 3.53 µM | TGI [15]: > 100 µM | GI50 [16]: 3.78 µM | TGI [16]: > 100 µM | GI50 [17]: 3.58 µM | TGI [17]: > 100 µM | GI50 [18]: 2.95 µM | TGI [18]: 8.52 µM | GI50 [19]: 1.8 µM | TGI [19]: 8.24 µM | GI50 [20]: 4.39 µM | TGI [20]: > 100 µM | GI50 [21]: 3.68 µM | TGI [21]: > 100 µM | GI50 [22]: 3.71 µM | TGI [22]: > 100 µM | GI50 [23]: > 100 µM | TGI [23]: > 100 µM | GI50 [24]: 3.68 µM | TGI [24]: > 100 µM | GI50 [25]: > 100 µM | TGI [25]: > 100 µM | GI50 [26]: > 100 µM | TGI [26]: > 100 µM | GI50 [27]: 2.69 µM | TGI [27]: > 100 µM | GI50 [28]: 3.27 µM | TGI [28]: > 100 µM | GI50 [29]: 3.32 µM | TGI [29]: > 100 µM | GI50 [30]: 2.83 µM | TGI [30]: > 100 µM | GI50 [31]: > 100 µM | TGI [31]: > 100 µM | GI50 [32]: 3.51 µM | TGI [32]: > 100 µM | GI50 [33]: 3.21 µM | TGI [33]: > 100 µM | GI50 [34]: 2.21 µM | TGI [34]: > 100 µM | GI50 [35]: 5.89 µM | TGI [35]: > 100 µM | GI50 [36]: 3.17 µM | TGI [36]: > 100 µM | GI50 [37]: > 100 µM | TGI [37]: > 100 µM

O=C1C[C@@H]2OCC=C3C[N+]4([O-])CC[C@]56c7ccccc7N1[C@H]5[C@H]2[C@H]3C[C@@H]64 (stereo not given in full)
GI50 [38]: > 100 µM | TGI [38]: > 100 µM | GI50 [39]: > 100 µM | TGI [39]: > 100 µM | GI50 [1]: > 100 µM | TGI [1]: > 100 µM | GI50 [2]: > 100 µM | TGI [2]: > 100 µM | GI50 [3]: > 100 µM | TGI [3]: > 100 µM | GI50 [4]: > 100 µM | TGI [4]: > 100 µM | GI50 [40]: > 100 µM | TGI [40]: > 100 µM | GI50 [5]: > 100 µM | TGI [5]: > 100 µM | GI50 [6]: > 100 µM | TGI [6]: > 100 µM | GI50 [7]: > 100 µM | TGI [7]: > 100 µM | GI50 [8]: > 100 µM | TGI [8]: > 100 µM | GI50 [41]: > 100 µM | TGI [41]: > 100 µM | GI50 [42]: > 100 µM | TGI [42]: > 100 µM | GI50 [43]: > 100 µM | TGI [43]: > 100 µM | GI50 [9]: > 100 µM | TGI [9]: > 100 µM | GI50 [10]: > 100 µM | TGI [10]: > 100 µM | GI50 [11]: > 100 µM | TGI [11]: > 100 µM | GI50 [44]: > 100 µM | TGI [44]: > 100 µM | GI50 [12]: > 100 µM | TGI [12]: > 100 µM | GI50 [13]: > 100 µM | TGI [13]: > 100 µM | GI50 [14]: > 100 µM | TGI [14]: > 100 µM | GI50 [15]: > 100 µM | TGI [15]: > 100 µM | GI50 [45]: > 100 µM | TGI [45]: > 100 µM | GI50 [16]: > 100 µM | TGI [16]: > 100 µM | GI50 [17]: > 100 µM | TGI [17]: > 100 µM | GI50 [18]: > 100 µM | TGI [18]: > 100 µM | GI50 [19]: > 100 µM | TGI [19]: > 100 µM | GI50 [46]: > 100 µM | TGI [46]: > 100 µM | GI50 [20]: > 100 µM | TGI [20]: > 100 µM | GI50 [21]: > 100 µM | TGI [21]: > 100 µM | GI50 [22]: > 100 µM | TGI [22]: > 100 µM | GI50 [23]: > 100 µM | TGI [23]: > 100 µM | GI50 [47]: > 100 µM | TGI [47]: > 100 µM | GI50 [24]: > 100 µM | TGI [24]: > 100 µM | GI50 [48]: > 100 µM | TGI [48]: > 100 µM | GI50 [49]: > 100 µM | TGI [49]: > 100 µM | GI50 [25]: > 100 µM | TGI [25]: > 100 µM | GI50 [50]: > 100 µM | TGI [50]: > 100 µM | GI50 [51]: > 100 µM | TGI [51]: > 100 µM | GI50 [26]: > 100 µM | TGI [26]: > 100 µM | GI50 [27]: > 100 µM | TGI [27]: > 100 µM | GI50 [28]: > 100 µM | TGI [28]: > 100 µM | GI50 [29]: > 100 µM | TGI [29]: > 100 µM | GI50 [52]: > 100 µM | TGI [52]: > 100 µM | GI50 [53]: > 100 µM | TGI [53]: > 100 µM | GI50 [54]: > 100 µM | TGI [54]: > 100 µM | GI50 [30]: > 100 µM | TGI [30]: > 100 µM | GI50 [31]: > 100 µM | TGI [31]: > 100 µM | GI50 [32]: > 100 µM | TGI [32]: > 100 µM | GI50 [33]: > 100 µM | TGI [33]: > 100 µM | GI50 [34]: > 100 µM | TGI [34]: > 100 µM | GI50 [35]: > 100 µM | TGI [35]: > 100 µM | GI50 [55]: > 100 µM | TGI [55]: > 100 µM | GI50 [36]: > 100 µM | TGI [36]: > 100 µM | GI50 [37]: > 100 µM | TGI [37]: > 100 µM | GI50 [56]: > 100 µM | TGI [56]: > 100 µM

CCCCC/C=C/C/C=C\CCCCCCCC(=O)NC1CC(O)C(O)NC(=O)C2C(O)C(C)CN2C(=O)C(C(C)O)NC(=O)C(C(O)C(O)c2ccc(O)cc2)NC(=O)C2CC(O)CN2C(=O)C(C(C)O)NC1=O (stereo not drawn) (X22-[ξOrn(4,5-diOH)]T[Hyp][ξhTyr(βξ-OH,γξ-OH)]T[ξPro(3ξ-OH,4ξ-Me)]; lactam 1-C; configuration not given here)
TGI [41]: > 100 µM | TGI [44]: > 100 µM | TGI [57]: > 100 µM | TGI [52]: > 100 µM
